Data on 2 molecules can be found in patent US6849435B2, “Use of VLCFAE for identifying herbicidally active compounds” (Bayer Aktiengesellschaft, priority 2000, dated 2005).

Each structure is given as a SMILES string. “Also recorded” adds a separate entry of the source.

One assay concerns Arabidopsis thaliana. The experiment in a line: Herbicide treatment of Arabidopsis thaliana with flufenacet: generation of the fiddlehead phenotype. The assay is classed as in vivo, Arabidopsis thaliana (ecotype Columbia Col-0). The protocol: Herbicide Treatment of Arabidopsis thaliana With Flufenacet: Generation of the Fiddlehead Phenotype Arabidopsis seeds (ecotype Columbia Col-0), which were stored at 4° C., were sown in soil and cultivated at 22° C.±2° C. under long-day conditions (16 h light/8h dark). Plants 2 weeks old were sprayed with 250 g/ha and 50 g/ha flufenacet and cultivated further at 22° C.±2° C. under long-day conditions (16 h light/8h dark). […] These fusions are very similar to those in the “fiddlehead” mutants.

The subject of assay [1] is C18:1 fatty acid elongation. Particulars: cited from earlier work.

Regarding `CC(C)N(C(=O)COc1nnc(C(F)(F)F)s1)c1ccc(F)cc1` [flufenacet], the “appearance of flowers after recovery” value with Arabidopsis thaliana (from day 18 after treatment with 250 g/ha and 50 g/ha) is given as “all the flowers appear normal again”. The “fusion of the rosette leaves” value in the assay with Arabidopsis thaliana (in vivo) is “leads to fusion of the rosette leaves”. Further, the “fiddlehead phenotype (fusion of flower organs)” value in the assay with Arabidopsis thaliana (plants 2 weeks old sprayed with 250 g/ha and 50 g/ha, between day 7 and day 11 after treatment) is recorded as “fiddlehead phenotype can be induced; also recorded: the flower organs fuse with the uppermost cauline leaves”.
As to `CN(C)c1cnn(-c2ccccc2)c(=O)c1Cl` [BAS 13-338], the “inhibition of C18:1 fatty acid elongation” value in assay [1] was “inhibit C18:1 fatty acid elongation”.
